{"source": "paper PMC7417534", "about": "“Cytochrome P450 inhibition potential and initial genotoxic evaluation of 14-O-[(4,6-diaminopyrimidine-2-yl)thioacetyl] mutilin” (Scientific Reports, 2020)", "key": {"[1]": {"assay": "MTT cytotoxicity assay on Hep G2 cells", "format": "cell-based, human", "settings": "human, DPTM 4.98 mM, read-out: cell viability", "procedure": "(§1) Intrinsic toxicity of DPTM was conducted as described in the literature[36]–[38] with some modifications. […] After proliferating to logarithmic growth phase at 37 °C under 5% CO2, cells were seeded to a new 96-well plate with a density of […] and cultured for 24 h at the same condition. The media were replaced with 100 μL of serial dilutions of DPTM (10 mg DPTM was dissolved in 1 mL 1% DMSO to a solution and then diluted two-fold with distilled water to provide 19.91, 9.96, 4.98, 2.49, 1.25, 0.62, 0.31, 0.16 and 0.08 mM serial dilutions). The blank group only used 1% DMSO to replace the media. The obtained mixture was incubated for 24 h. After that, all media in cells were removed and 20 μL of MTT reagent was added for an additional 4 h. Then, supernatant fraction was removed and 100 μL dimethyl sulfoxide (DMSO) was added, followed by incubation at 37 °C for 15 min. The absorbance of each well was determined by a spectrophotometer at dual wavelengths of 570 and 279 nm for the background. The viability percentage was calculated by the following formula: cell viability % = (ODsample − ODblank/ODcontrol − ODblank) × 100. A sigmoid-shaped curve was fitted to the data, and the IC50 was calculated by fitting the Hill equation to the data with nonlinear regression (least-squares best fit modelling) using GraphPad Prism 4 (GraphPad Software Inc., San Diego, USA). […]"}, "Hep G2 cells": {"system": "Hep G2 cells", "assay": "MTT cytotoxicity assay on Hep G2 cells", "format": "cell-based, human", "settings": "Homo sapiens, HepG2, 24 h incubation, read-out: IC50 value, cell viability (MTT)", "procedure": "as §1"}, "CYP3A": {"system": "CYP3A", "assay": "Cocktail CYP inhibition in rat liver microsomes, CYP3A (dapsone)", "format": "in vitro ADME", "settings": "probe dapsone (55 μM), cocktail method, read-out: IC50 values, CYP3A in RLMs", "procedure": "We used the cocktail method to study the inhibition activities of DPTM against CYP enzymes in RLMs and HLMs with slight modification. DPTM (250 μmol) was dissolved in 1.25 mL methanol to a solution and then diluted with methanol and water to 2, 10, 20, 100, 200, 400, 1,000 and 2000 μM, respectively. The obtained serial dilutions (10 μL) were added to the incubation mixtures (200 μL total volume), containing 100 μL RLMs or HLMs (final concentration was 5 μg/μL, respectively), 10 μL glucose-6-phosphate (final concentration was 1 mM), 10 μL glucose-6-phosphate dehydrogenase (final concentration was 0.1 U/L), 20 μL potassium phosphate buffer (final concentration was 0.01 M) and 20 μL MgCl2 (final concentration was 2 mM), to give the final concentrations were 0.1, 0.5, 1, 5 10, 20, 50, and 100 μM, respectively. For the groups that in the absence of DPTM, 10 μL methanol (1%) replaced the DPTM and was added to the incubation mixtures. […] The final concentration of methanol in all the incubation mixtures, including the blank group, was […]. […] The determined metabolic substrates were used for calculating the relative enzyme activity (Erel) by the following formula: Erel (%) = Ci(n)/Ci(0) × 100%, in which Ci(n) was the determined metabolic substrates in the presence of varying concentrations of DPTM and Ci(0) was the determined metabolic substrates in the absence of DPTM. […]"}, "S. typhimurium TA97": {"system": "S. typhimurium TA97", "assay": "Ames test, strain TA97", "format": "cell-based, Salmonella typhimurium", "settings": "− S9", "text": "(§2) S. typhimurium strains TA97, TA98, TA100, TA102 and TA1535 were stored and maintained as provided in the standard protocol. Each of the strains was checked for their genetic integrity prior to the experiment, and tested for biotin dependence, histidine dependence, biotin and histidine dependence, rfa marker (crystal violet) and presence of the plasmid pKM101 (ampicillin resistance) or pAQ1 (tetracycline resistance). Different strains were used to identify different types of mutations.\n(§3) The test was carried out at five different concentrations of DPTM. […] Then 1 mL solution was diluted with distilled water by two fold. […] The negative control used in this experiment was 1 mL DMSO which was directly incorporated into 9 mL melted top agar.\n(§4) The Ames test of DPTM was conducted as described in the literatures[42],[43] with some modifications. Briefly, 1 mL of strain was inoculated into 5 mL of nutrient broth, followed by incubating overnight at 37 °C. The mixture comprised respective strains, drug, negative and positive controls with the S9 for testing in the presence of metabolic activation system. For testing without S9, 1 × phosphate buffer saline (PBS, pH 7.4) replaced the S9 mix. The obtained mixtures were added into the tube, mixed well and incubated at 37 °C for 20 min. Then, the top agar was melted and 2 mL of this melted top agar was added to each tube and gently mixed. […] The results were expressed as the number of revertant colonies per plate. The experiments were performed in triplicate."}, "S. typhimurium TA102": {"system": "S. typhimurium TA102", "settings": "− S9", "text": "as §2\nThe test was carried out at five different concentrations of DPTM. […] Then 1 mL solution was diluted with distilled water by two fold.\nas §4"}, "[2]": {"system": "S. typhimurium strains TA97, TA98, TA100, TA102 and TA1535", "assay": "Ames test, overall verdict over five strains", "format": "cell-based, Salmonella typhimurium", "settings": "with or without S9, up to 3.98 μmol/plate", "text": "as §2, §3\nas §4, with “min.” for “min. Then, the top agar was melted and 2 mL of this melted top agar was added to each tube and gently mixed.”, “The experiments were performed in triplicate.” left out"}}, "note": "Read-outs that look alike come from different tables or passages of the source."}
{"molecule": "C=CC1(C)CC(OC(=O)CSc2nc(N)cc(N)n2)C2(C)C(C)CCC3(CCC(=O)C32)C(C)C1O", "note": "(stereo not shown) [DPTM, 14-O-[(4,6-Diaminopyrimidine-2-yl)thioacetyl] mutilin]", "values": [{"measurement": "viability at 24 h, 4.98 mM", "setting": "[1]", "result": 79, "unit": "%"}, {"measurement": "IC50", "setting": "Hep G2 cells", "result": "10 ± 2", "unit": "mM"}, {"measurement": "IC50 at 15 min", "setting": "CYP3A", "result": "0.01 ± 0.002", "unit": "mM"}, {"measurement": "revertant colonies per plate, TA97", "setting": "S. typhimurium TA97; dose 0.50 μmol/plate", "result": "165 ± 14", "unit": "CFU"}, {"measurement": "revertant colonies per plate, TA97", "setting": "S. typhimurium TA97; dose 1.00 μmol/plate", "result": "171 ± 8", "unit": "CFU"}, {"measurement": "revertant colonies per plate, TA97", "setting": "S. typhimurium TA97; dose 1.99 μmol/plate", "result": "174 ± 17", "unit": "CFU"}, {"measurement": "revertant colonies per plate, TA97", "setting": "S. typhimurium TA97; dose 3.98 μmol/plate", "result": "169 ± 14", "unit": "CFU"}, {"measurement": "revertant colonies per plate, TA102", "setting": "S. typhimurium TA102; dose 0.25 μmol/plate", "result": "256 ± 20", "unit": "CFU"}, {"measurement": "revertant colonies per plate, TA102", "setting": "S. typhimurium TA102; dose 0.50 μmol/plate", "result": "241 ± 10", "unit": "CFU"}, {"measurement": "revertant colonies per plate, TA102", "setting": "S. typhimurium TA102; dose 1.00 μmol/plate", "result": "260 ± 17", "unit": "CFU"}, {"measurement": "revertant colonies per plate, TA102", "setting": "S. typhimurium TA102; dose 1.99 μmol/plate", "result": "264 ± 15", "unit": "CFU"}, {"measurement": "revertant colonies per plate, TA102", "setting": "S. typhimurium TA102; dose 3.98 μmol/plate", "result": "268 ± 12", "unit": "CFU"}, {"measurement": "mutagenicity verdict (Ames test)", "setting": "[2]", "result": "should not be considered as a mutagen"}]}
